Measured values reported in patent US12318399B2 (priority 2022, dated 2025).

What was measured:
[1] = test system: endometrial cancer organoids; experiment: Patient-derived endometrial cancer organoid cell viability (CellTiter-Glo); format: cell-based, human; conditions: for Flavonoids screening on endometrial cancer cell organoids, Average: viability normalized to vehicle = 100; for cell viability: FIG. 17B; for efficacy in combination with FSHE: combined with IC50 FSHE, FIG. 18; for Endometrial Cancer Average: vehicle = 100; for cell viability compared to the IC50 value: 75 μM in combination with BSHE at an IC50, FIG. 17A
Protocol: (§1) Development of patient derived organoids: The patient derived organoids were created as follows: the patient's tissue sample was collected after surgery and bathed in Hank's Balanced Salt Solution (HBSS) (Hyclone, SH30031.02) with 1% Pencillin/Streptomycin (P/S) (Life Technologies, 15070-063) on ice. Then the sample was washed three times with Dulbecco's phosphate-buffered saline (DPBS) and 1% P/S on a shaker (70 rpm) for 15 minutes each. The tissue was then transferred into a presterilized cell-culture hood to mince it finely with a sterile blade. All minced parts were then digested in an enzyme named Accumax (Innovative Cell Technologies Inc., AM105-500) for 2.5 hours at room temperature. After 2.5-hour incubation, the whole digested tissue mince was transferred in another enzyme, TrypLE express, (Gibco, 12604-021) for another 45 minutes in a 37° C. water bath. During this time the solution was continuously agitated in every 5 minutes interval. After 45 minutes of incubation, the solutions were passed through 70 μm filter on a 50 mL falcon tube. The filter was removed, and the flowthrough with the cells was collected in 5% FBS AD+++ medium (comprising 1% TS, 2% B27, 1% N2, 25% WRN, hegf 50 ng/ml, hfgf 10-100 ng/ml, Nicotinamide 1 mM, N-acetyl cysteine 1.25 mM, Primocin 0.2%, Estrogen 2 nm, A8301 0.5 μM, and Y27632). This cell suspension was centrifuged at 1000 rpm for 5 minutes at room temperature to get the cell pellet for counting. Upon checking under hemocytometer cell number was calculated and processed for organoid culture. After checking under a microscope if we found RBC contamination in the final cell suspension, then we used Red Blood Cell Lysis Buffer (Roche Diagnostics, 11814389001) to get rid of the excess RBC. Human patient cells from endometrial cancer were grown and maintained in a humidified chamber at 37° C. with 5% CO2.
(§2) To culture patient-derived organoids, 2-3×10^3 cells were plated in a prewarmed (37° C.) 96-well plate in […] of Matrigel (5% FBS AD+++ medium) per well. Individual patient cell organoid was cultured separately in different plates. Individual patient cells were handled separately to reduce the chance of cross-contamination. After mixing cells with Matrigel, […] droplets were placed in wells and put in a 37° C. incubator with 5% CO2 for 30 minutes. Upon solidification of the Matrigel droplet with cells inside, the plate was placed inside a sterile hood and immersed the Matrigel droplet in 200 μL of organoid growth media. Cells were allowed to grow into mature organoids for 14 days. […] All treatments were done in triplicate, including vehicle-only controls (Dimethyl sulfoxide in culture medium at the highest concentration used for drug treatments).
(§3) Note: IC50 is the 50% inhibitory concentration which is conventionally used to determine drug potency with cell-based cytotoxicity tests. Similarly, all of the antioxidants were tested under the same protocol.
(§4) To assess the cell viability in organoids after treatments, CellTiter-Glo® Luminescent Assay (Promega #G7572) was used. In brief, on day 14 of organoid culture, the matrigel droplet in each well with organoid inside was immersed in 100 μL of fresh growth media and 100 μL of CellTiter-Glo® reagent following the manufacturer's guideline. Blank wells containing only media and CellTiter-Glo® reagent (no cells) were also included in each plate. Then the plates were put on a shaker at 110 RPM at room temperature for […] minutes to induce cell lysis, followed by 25 minutes at room temperature to stabilize the luminescent signal. Each step after adding the CellTiter-Glo® reagent was performed in the dark. Luminescence was measured on a FLUOstar OPTIMA plate reader (BMG Lab technologies, Offenburg, Germany). Analysis was performed by normalizing treatment values to the vehicle control and plotting them as a percentage of the vehicle control.

[2] = oral formulations; cited from earlier work
ovarian cancer organoids = experiment: Patient-derived ovarian cancer organoid cell viability; format: cell-based, human; conditions: vehicle = 100
Protocol: as §1
For the Ascites samples, we centrifuged the ascites fluid at 1000 rpm for 10 minutes at room temperature to get the cell suspension. The cell suspension was then treated with Red Blood Cell Lysis Buffer (Roche Diagnostics, 11814389001) to remove the RBC from the final cell suspension. Once samples were created, they were ready for testing, which included treating the organoids with cannabis extract. Additional cells were cultured in the same manner as above.
as §2, §3
To assess the cell viability in organoids after treatments, CellTiter-Glo® Luminescent Assay (Promega #G7572) was used. In brief, on day 14 of organoid culture, the matrigel droplet in each well with organoid inside was immersed in 100 μL of fresh growth media and 100 μL of CellTiter-Glo® reagent following the manufacturer's guideline. Blank wells containing only media and CellTiter-Glo® reagent (no cells) were also included in each plate. […]

endometriosis organoids = experiment: Endometriosis organoid cell viability; format: cell-based, human; design: key: % of vehicle control; conditions: vehicle = 100
Protocol: as §2, §3
as §4, with “control. Drug IC50 values were determined by inhibitor vs normalized response-variable slope using least squares regression in Graphpad Prism 9.” for “control.”

With O=c1c(O)c(-c2ccccc2)oc2ccccc12 [3-hydroxyflavone] the “Flavonoids screening on endometrial cancer cell organoids, Average” value (from here on “Flavonoids screening”) ([1]; 10 μM, monotherapy) was 61.62, the “Flavonoids screening” value ([1]; 20 μM, monotherapy) was 48.26 and the “Flavonoids screening” value ([1]; 30 μM, monotherapy) was 51.28. For the same molecule, the “Flavonoids screening” value ([1]; 40 μM, monotherapy) was 41.00, the “Flavonoids screening” value ([1]; 50 μM, monotherapy) was 37.88 and the “Flavonoids screening” value ([1]; 60 μM, monotherapy) was 35.89. For the same molecule, the “Flavonoids screening” value ([1]; 80 μM, monotherapy) was 34.31 and the “Flavonoids screening” value ([1]; 100 μM, monotherapy) was 34.65.

With O=c1c(O)c(-c2ccccc2)oc2cc(O)cc(O)c12 [Galangin] the “Flavonoids screening” value ([1]; 10 μM, monotherapy) was 98.74, the “Flavonoids screening” value ([1]; 20 μM, monotherapy) was 98.58 and the “Flavonoids screening” value ([1]; 30 μM, monotherapy) was 96.96. The “Flavonoids screening” value ([1]; 40 μM, monotherapy) was 69.20, the “Flavonoids screening” value ([1]; 50 μM, monotherapy) was 49.62 and the “Flavonoids screening” value ([1]; 60 μM, monotherapy) was 33.55. The “Flavonoids screening” value ([1]; 80 μM, monotherapy) was 25.66 and the “Flavonoids screening” value ([1]; 100 μM, monotherapy) was 29.73.

For O=c1cc(-c2ccc(O)c(O)c2)oc2cc(O)cc(O)c12 [Luteolin], the “Flavonoids screening” value ([1]; 10 μM, monotherapy) was 90.54, the “Flavonoids screening” value ([1]; 20 μM, monotherapy) was 56.75 and the “Flavonoids screening” value ([1]; 30 μM, monotherapy) was 33.96. The “Flavonoids screening” value ([1]; 40 μM, monotherapy) was 1.39, the “Flavonoids screening” value ([1]; 50 μM, monotherapy) was 0.00 and the “Flavonoids screening” value ([1]; 60 μM, monotherapy) was 0.00. For the same molecule, the “Flavonoids screening” value ([1]; 80 μM, monotherapy) was 0.00 and the “Flavonoids screening” value ([1]; 100 μM, monotherapy) was 0.00.

With O=c1c(O)c(-c2ccc(O)c(O)c2)oc2cc(O)cc(O)c12 [Quercetin] the “Flavonoids screening” value ([1]; 10 μM, monotherapy) was 95.16, the “Flavonoids screening” value ([1]; 20 μM, monotherapy) was 89.43 and the “Flavonoids screening” value ([1]; 30 μM, monotherapy) was 85.33. The “Flavonoids screening” value ([1]; 40 μM, monotherapy) was 58.16, the “Flavonoids screening” value ([1]; 50 μM, monotherapy) was 34.67 and the “Flavonoids screening” value ([1]; 60 μM, monotherapy) was 25.59. For the same molecule, the “Flavonoids screening” value ([1]; 80 μM, monotherapy) was 7.88 and the “Flavonoids screening” value ([1]; 100 μM, monotherapy) was 0.00.

For CCCCCc1cc(O)c2c(c1)OC(C)(C)[C@@H]1CCC(C)=C[C@@H]21 [THC, Δ-9-tetrahydrocannabinol], the “onset to reach peak concentration” value [2] is listed as about 120 min.

With N.N.O=C([O-])C1(C(=O)[O-])CCC1.[Pt+2] [carboplatin, reference compound] the “relative improvement on increasing the chemotherapeutic drug by 5×” value ([1]; carboplatin alone) was “about 18%”, the viability ([1]; carboplatin alone, 50 μg/mL (lowest dose)) was “about 50%” and the viability ([1]; carboplatin alone, highest dose) was “about 32%”.

In the case of O=c1cc(-c2ccccc2)oc2cc(O)cc(O)c12 [chrysin], the cell viability ([1]; 10 μM combined with the IC50 of the BSHE) is reported as 3.04%, the growth ([1]; 10 μM, monotherapy, FIG. 16) is reported as 178.99% and the “change in viability, combination vs monotherapy” value ([1]; 10 μM, with IC50 of BSHE) is reported as about 175%. It also gave a cell viability ([1]; 12.5 μM combined with the IC50 of the BSHE) of about 0%, a growth ([1]; 25 μM, monotherapy, FIG. 16) of 188.45% and a growth ([1]; 50 μM, monotherapy, FIG. 16) of 125.21%. The viability ([1]; 100 μM, monotherapy, FIG. 16) was 56.74 and the “efficacy in combination with FSHE” value [1] was 2nd most effective combination.

For O=c1c(O)c(-c2cc(O)c(O)c(O)c2)oc2cc(O)cc(O)c12 [myricetin], the “Ovarian Cancer Average” value (ovarian cancer organoids; 25 μM) was 88.60, the “Ovarian Cancer Average” value (ovarian cancer organoids; 50 μM) was 84.68 and the “Ovarian Cancer Average” value (ovarian cancer organoids; 75 μM) was 78.36. The “Ovarian Cancer Average” value (ovarian cancer organoids; 100 μM) was 38.95, the “Ovarian Cancer Average” value (ovarian cancer organoids; 125 μM) was 13.49 and the “Ovarian Cancer Average” value (ovarian cancer organoids; 150 μM) was 2.97. For the same molecule, the “Ovarian Cancer Average” value (ovarian cancer organoids; 175 μM) was 0.00, the “Ovarian Cancer Average” value (ovarian cancer organoids; 200 μM) was 0.00 and the “Endometriosis Average” value (endometriosis organoids; 25 μM) was 92.10. For the same molecule, the “Endometriosis Average” value (endometriosis organoids; 50 μM) was 91.37, the “Endometriosis Average” value (endometriosis organoids; 75 μM) was 73.66 and the “Endometriosis Average” value (endometriosis organoids; 100 μM) was 18.33. The “Endometriosis Average” value (endometriosis organoids; 125 μM) was 2.85, the “Endometriosis Average” value (endometriosis organoids; 150 μM) was 0.00 and the “Endometriosis Average” value (endometriosis organoids; 175 μM) was 0.00. For the same molecule, the “Endometriosis Average” value (endometriosis organoids; 200 μM) was 0.00, the “reduction from its monotherapy” value ([1]; 10 μM, with IC50 of BSHE) was about 86% and the “Endometrial Cancer Average” value ([1]; Table 4, 10 μM) was 85.01. For the same molecule, the “Endometrial Cancer Average” value ([1]; Table 4, 25 μM) was 54.50, the “Endometrial Cancer Average” value ([1]; Table 4, 50 μM) was 15.11 and the “Endometrial Cancer Average” value ([1]; Table 4, 75 μM) was 4.98. The “Endometrial Cancer Average” value ([1]; Table 4, 100 μM) was 0.00, the “Endometrial Cancer Average” value ([1]; Table 4, 125 μM) was 0.00 and the “Endometrial Cancer Average” value ([1]; Table 4, 150 μM) was 0.00. For the same molecule, the “Endometrial Cancer Average” value ([1]; Table 4, 175 μM) was 0.00, the “Endometrial Cancer Average” value ([1]; Table 4, 200 μM) was 0.00 and the “cell viability as a monotherapy” value ([1]; monotherapy, FIG. 16) was “significantly reduced cell viability”.

With CC(=O)O[C@H]1C(=O)[C@@]2(C)[C@H]([C@H](OC(=O)c3ccccc3)[C@]3(O)C[C@H](OC(=O)[C@H](O)[C@@H](NC(=O)c4ccccc4)c4ccccc4)C(C)=C1C3(C)C)[C@]1(OC(C)=O)CO[C@@H]1C[C@@H]2O [paclitaxel, reference compound] the “relative reduction in viability on increasing the dose by 5×” value ([1]; paclitaxel alone, 4 nm/ml to 20 nm/ml) was “about 12%”.

For O=C1c2c(O)cc(O)cc2O[C@H](c2ccc(O)c(O)c2)[C@H]1O [taxifolin], the “effect on cells as monotherapy” value ([1]; 50 μM, monotherapy, FIG. 16) was “inducing cell proliferation” and the “cell viability compared to the IC50 value” [1] was “significant reduction cell viability”.

In the case of Cc1c(C)c2c(c(C)c1O)CC[C@@](C)(CCC[C@H](C)CCC[C@H](C)CCCC(C)C)O2 [tocopherol, reference compound], the “effect on cells as monotherapy” value ([1]; 50 μM, monotherapy, FIG. 16) is reported as “inducing cell proliferation”, the “cell viability compared to the IC50 value” [1] is reported as “significant reduction cell viability” and the “efficacy in combination with FSHE” value [1] is reported as “made the IC50 FSHE ineffective”. The “impact on cell viability alone in the carrier” value ([1]; monotherapy in DMSO) was “virtually no impact on cell viability”.

With C=C1CC/C=C(\C)CC[C@@H]2[C@@H]1CC2(C)C [β-caryophyllene, reference compound] the “effect on cells as monotherapy” value ([1]; 50 μM, monotherapy, FIG. 16) was “inducing cell proliferation” and the “cell viability compared to the IC50 value” [1] was “significant reduction cell viability”.
